Reference: US11384071B2, “Inhibitors of mechanotransduction to treat pain and modulate touch perception” (Max-Delbrück-Centrum für Molekulare Medizin in der …, priority 2016, dated 2022)

Experiments:
[1] = test system: mice with chronic constriction injury; test: Chronic constriction injury (CCI) model, paw withdrawal thresholds to von Frey filaments; format: in vivo, mouse
Excerpt: In deeply anaesthetized mice using isoflurane delivered in 100% 02 (Univentor 410 Anaesthesia unit; Univentor, Malta), four loose silk (5/0; Catgut GmbH Markneukirchen) ligatures were placed around the sciatic nerve at the level of the right mid-thigh as described previously (Wetzel et al., 2007).
(§1) Mice were allowed to habituate to the testing apparatus (acrylic chambers 10×10 cm in size, suspended above a wired mesh grid) one hour prior to behavioral testing. Only once the subject was at rest and not moving, calibrated von-Frey hair monofilaments (Aesthesio® set of 20 monofilaments, Ugo Basil) were applied to the plantar surface of the hind paw in order to deliver target forces from 0.008 grams to 4 grams increasing in an approximately logarithmic scale. A single stimulus indicated by a slight bending of the filament lasted for two seconds unless the mouse withdrew its paw. In order to measure mechanosensitivity the up-and-down method described by Chaplan^13 was adapted as follows: Testing began with a filament delivering a target force of 0.4 g, but filaments were applied three times. A positive response was noted if the subject withdrew the paw to all three filament applications, so that the successively smaller filament was presented next. […] Paw withdrawal thresholds were calculated as median of 23 to 30 determined turning points of the particular force stimuli applied to the subject.
Drug injections of OB-1 or DMSO alone were dissolved in Ringer's solution (in mM: 135 NaCl, 5 KCl, 5 HEPES, 1.8 CaCl2), 1 MgCl2) to make the OB-1 and vehicle solution. Injections were made 3 hours prior to behavioral testing, approximately 20 μl solution, 250 pmol per paw, was injected into the palm with a Hamilton syringe, gauge 33. During the injection procedure, the mouse was anaesthetized with isoflurane (1.5 to 2.5% in 02). The injection procedure lasted around 3 minutes after which the mouse was moved to the home cage for recovery before behavioral testing.
We next interrogated whether local application of OB-1 can ameliorate tactile-evoked pain behavior in neuropathic models. […] We decided to test this idea more directly by testing the effects of local OB-1 on the mechanical sensitivity of Stoml3^−/− mice with CCI. […] Off-target effects are an issue for any biologically active small molecule. We therefore tested the effects of 20 μM OB-1 in a commercially available in vitro pharmacology panel (www.cerep.fr) consisting of 79 receptors and ion channels.

naive mice = test: Paw withdrawal threshold and radiant heat latency in naive mice; format: in vivo, mouse; conditions: intraplantar 250-500 pmol per paw
Excerpt: as §1
Drug injections of OB-1 or DMSO alone were dissolved in Ringer's solution (in mM: 135 NaCl, 5 KCl, 5 HEPES, 1.8 CaCl2), 1 MgCl2) to make the OB-1 and vehicle solution. […]

hsSTOML3 = molecular target: T1, hsSTOML3 (Homo sapiens, UniProt Q8TAV4); test: TriGFP assay of hsSTOML3 self-association in N2a cells, flow cytometry; format: cell-based; conditions: 20 μM, 16 h, vs vehicle
T1 construct: expressed in transfected cells; host or cells: N2a
T1 sequence (Q8TAV4 whole entry): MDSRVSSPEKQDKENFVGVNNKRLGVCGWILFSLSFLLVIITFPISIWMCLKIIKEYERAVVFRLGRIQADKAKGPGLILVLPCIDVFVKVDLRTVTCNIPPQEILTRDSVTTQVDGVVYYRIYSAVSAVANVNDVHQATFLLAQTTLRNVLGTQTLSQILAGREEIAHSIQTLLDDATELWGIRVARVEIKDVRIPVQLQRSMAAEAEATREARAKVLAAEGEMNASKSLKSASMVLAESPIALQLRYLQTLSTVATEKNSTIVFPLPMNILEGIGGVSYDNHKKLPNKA
Protocol: (a) The assay is based on the tripartite association between the two twenty amino-acids long GFP tags GFP10 and GFP11, which were fused to hsSTOML3 protein partners, and the complementary GFP1-9 detector (Reference 50). When hsSTOML3 proteins interact, GFP10 and GFP11 self-associate with GFP1-9 and reconstitute functional GFP.
N2a cells were cultured in 6-well plates to approximately 70% confluence; cells were co-transfected with plasmids encoding GFP1-9, STOML3-GFP10 and STOML3-GFP11 using PEI, as per manufacturer's instructions. The transfection reaction was allowed to proceed for 8 h before compound incubation at 20 μM final concentration. Twenty-four hours after transfection cells were collected, fixed with 4% PFA for 10 minutes and resuspended in PBS. Cell suspensions were used for flow cytometry analysis.
In this assay, N2a cells were co-transfected with plasmids encoding GFP1-9, STOML3-GFP10 and STOML3-GFP11 and incubated with either vehicle (0.4% DMSO) or OB-1 derivatives at 20 μM final concentration for 16 h. Twenty-four hours after transfection cells were collected, fixed with 4% PFA and resuspended in PBS.

stomatin = molecular target: T2, stomatin (Mus musculus, UniProt P54116); test: BiFC assay of stomatin self-association; format: cell-based
T2 construct: expressed in transfected cells; host or cells: HEK293 (general statement on the BiFC assay)
T2 sequence (P54116 whole entry): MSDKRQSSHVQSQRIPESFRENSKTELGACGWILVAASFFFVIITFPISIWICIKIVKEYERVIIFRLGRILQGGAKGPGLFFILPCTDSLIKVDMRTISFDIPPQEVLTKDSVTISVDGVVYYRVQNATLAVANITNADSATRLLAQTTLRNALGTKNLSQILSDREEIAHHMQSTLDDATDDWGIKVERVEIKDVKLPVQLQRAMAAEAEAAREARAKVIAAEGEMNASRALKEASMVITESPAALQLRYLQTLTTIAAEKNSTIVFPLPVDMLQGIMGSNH
Protocol: FIG. 8: Effects of STOML3 modulating molecules on other Stomatin-domain proteins. (a) BiFC signal development observed when cells were transfected with Stomatin-VC/-VN, STOML1-VC/-VN, STOML2-VC/-VN, STOML3-VC/-VN or Podocin-VC/-VN expression constructs respectively. […] (b) OB-1 was tested at two different concentrations (2 μm and 20 μm) using the BiFC assay where wild type STOML3 was used as both bait and prey.
In mammals STOML3 belongs to a family of five structurally conserved membrane proteins, including stomatin, STOML1, STOML2, and podocin^10,12-16, all of which self-associate via their stomatin-domain (FIG. 8a)^10. Self-association of stomatin-domain proteins can be monitored in HEK293 cells using Bimolecular Fluorescence Complementation (BiFC) whereby N- and C-terminal halves of the YFP molecule are tagged to the prey and bait protein STOML3^2,17 (FIG. 1a). Irreversible association of the YFP fragments produces fluorescence that increases linearly over time (FIG. 1b).

[2] = test system: Spared tibial nerve injury (SNI) mice; test: Spared nerve injury (SNI) model, paw withdrawal thresholds; format: in vivo, mouse; conditions: administration to the plantar skin
Excerpt: as §1

ASIC3 = test: pH-gated ASIC3 currents and stomatin modulation in CHO cells; format: cell-based
Protocol: To test the effect of compounds on stomatin modulation of ASIC currents CHO cells were transfected with vectors encoding Stomatin and ASIC3, in a ratio of 4:1 using lipofectamine, as per manufacturer's instructions. Cells were incubated with 20 μM OB-1 for 3 hours in extracellular buffer (see above), and OB-1 was maintained in the media during electrophysiological experiments. ASIC3 channels were gated by applying solutions of pH6 and pH4, and both the transient and sustained peak current density was measured.

Structure (SMILES): CCOC(=O)c1c(-c2ccccc2)oc2ccc(Oc3c([N+](=O)[O-])ncn3C)cc12 [OB-1, Ethyl 5-((1-methyl-4-nitro-1H-imidazol-5-yl)oxy)-2-phenylbenzofuran-3-carboxylate]
- effect of a single dose after 24 h ([1]; CCI): absent
- time of maximal effect after a single local injection ([1]; CCI): 3 h
- established hypersensitivity ([1]; CCI, applied to the contralateral paw): no reversal
- half-maximal effective dose (ED50) ([1]; CCI, paw withdrawal threshold, local injection): 4.42 µM
- half-maximal effective dose (ED50) ([1]; CCI, per paw): approximately 20 pmol
- paw withdrawal threshold ([1]; Stoml3−/− mice with CCI, local treatment of neuropathic paws): no change
- mechanical hypersensitivity ([1]; female mice with CCI, similar extent to males): reversed
- tactile-evoked pain or allodynia ([1]; wild type mice, CCI 6-21 days after induction, intraplantar ipsilateral): complete reversal
- paw withdrawal thresholds to mechanical stimuli (naive mice): no change
- withdrawal latency for radiant heat stimuli (naive mice): no change
- hsSTOML3 self-association (GFP signal intensity) (hsSTOML3): strongly reduce
- self-association of stomatin (BiFC) (stomatin): effective inhibitor
- allodynia [2]: no reversal
- ASIC3-mediated pH-evoked currents (transient and sustained) (ASIC3; CHO cells expressing ASIC3, 20 μm): no effect
- negative modulation of ASIC3 mediated currents by mouse stomatin (ASIC3; CHO cells, 20 μM, 3 hours): no detectable effect
